Several values for one entry are separate records, joined by “and”; a condition that tells them apart may be missing. Identical values can stand only once. Toxic doses and inconclusive results are not listed.
System: P388 leukemia ip, CD2F1 mice, survival T/C
Assay: NCI In Vivo Anticancer Drug Screen. Data for tumor model P388 Leukemia (intraperitoneal) in CD2F1 (CDF1) mice
Settings: endpoint: median survival time, higher = longer survival
Summary of the method: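 Mice carrying the transplanted tumor received test compound or vehicle. Survival was recorded in each group, and the value is the treated-group measurement divided by that of the vehicle-treated control group.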

[1] = dose: 25.0 mg/kg/injection, schedule: Q01DX009 (ip), vehicle: saline with Tween-80
[2] = dose: 50.0 mg/kg/injection, schedule: Q04DX003 (ip), vehicle: saline with Tween-80
[3] = dose: 100.0 mg/kg/injection, schedule: Q04DX003 (ip), vehicle: saline with Tween-80
[4] = dose: 12.5 mg/kg/injection, schedule: Q01DX009 (ip), vehicle: other
[5] = dose: 25.0 mg/kg/injection, schedule: Q01DX009 (ip), vehicle: other
[6] = dose: 50.0 mg/kg/injection, schedule: Q01DX009 (ip), vehicle: other
[7] = dose: 100.0 mg/kg/injection, schedule: Q01DX009 (ip), vehicle: other
[8] = dose: 12.5 mg/kg/injection, schedule: Q01DX009 (ip), vehicle: saline with Tween-80
[9] = dose: 100.0 mg/kg/injection, schedule: Q01DX009 (ip), vehicle: saline with Tween-80

SMILES: COc1ccc(C2=C(Cl)C(=O)N(c3ccc(Cl)cc3)C(=O)C2(Cl)Cl)cc1
- T/C (dose: 100.0 mg/kg/injection, schedule: Q04DX002 (ip), vehicle: Klucel (hydroxypropylcellulose) (HPC)): 101 % of control
- T/C (dose: 200.0 mg/kg/injection, schedule: Q04DX002 (ip), vehicle: Klucel (hydroxypropylcellulose) (HPC)): 94 % of control
- T/C (dose: 400.0 mg/kg/injection, schedule: Q04DX002 (ip), vehicle: Klucel (hydroxypropylcellulose) (HPC)): 97 % of control

SMILES: CCOC([O-])=N/C(=N/[n+]1ccc(C)cc1)c1ccccc1
- T/C (dose: 100.0 mg/kg/injection, schedule: Q04DX003 (ip), vehicle: saline): 104 % of control
- T/C (dose: 200.0 mg/kg/injection, schedule: Q04DX003 (ip), vehicle: saline): 106 % of control

SMILES: COC(=O)C1=C(C(=O)OC)CCC1
- T/C (dose: 25.0 mg/kg/injection, schedule: Q01DX009 (ip), vehicle: distilled water + Tween-80): 97 % of control
- T/C (dose: 50.0 mg/kg/injection, schedule: Q01DX009 (ip), vehicle: distilled water + Tween-80): 91 % of control
- T/C (dose: 100.0 mg/kg/injection, schedule: Q01DX009 (ip), vehicle: distilled water + Tween-80): 100 % of control
- T/C (dose: 200.0 mg/kg/injection, schedule: Q01DX009 (ip), vehicle: distilled water + Tween-80): 105 % of control
- T/C (dose: 400.0 mg/kg/injection, schedule: Q01DX009 (ip), vehicle: distilled water + Tween-80): 100 % of control

SMILES: NNC(=O)c1ccccc1
- T/C [1]: 104 % of control
- T/C (dose: 50.0 mg/kg/injection, schedule: Q01DX009 (ip), vehicle: saline with Tween-80): 113 % of control
- T/C [2]: 95 % of control
- T/C [3]: 100 % of control

SMILES: CCOc1cnco1
- T/C (dose: 100.0 mg/kg/injection, schedule: Q04DX002 (ip), vehicle: saline): 99 % of control
- T/C (dose: 200.0 mg/kg/injection, schedule: Q04DX002 (ip), vehicle: saline): 100 % of control
- T/C (dose: 400.0 mg/kg/injection, schedule: Q04DX002 (ip), vehicle: saline): 112 % of control

SMILES: Cc1ccc(F)cc1NC(=S)NN
- T/C (dose: 7.5 mg/kg/injection, schedule: Q01DX005 (ip), vehicle: Klucel (hydroxypropylcellulose) (HPC)): 100 % of control
- T/C (dose: 15.0 mg/kg/injection, schedule: Q01DX005 (ip), vehicle: Klucel (hydroxypropylcellulose) (HPC)): 99 % of control
- T/C (dose: 30.0 mg/kg/injection, schedule: Q01DX005 (ip), vehicle: Klucel (hydroxypropylcellulose) (HPC)): 91 % of control

SMILES: COc1ccc(OC)c2c1CC(C(C)=O)CC2=O (stereo not given)
- T/C [4]: 99 % of control
- T/C [5]: 112 % of control
- T/C [6]: 105 % of control
- T/C [7]: 108 % of control
- T/C (dose: 200.0 mg/kg/injection, schedule: Q01DX009 (ip), vehicle: other): 107 % of control

SMILES: COc1cc(/C=C/CO)cc(OC)c1OC1OC(CO)C(O)C(O)C1O (stereo not given)
- T/C (dose: 10.0 mg/kg/injection, schedule: Q01DX009 (ip), vehicle: saline + alcohol): 100 % of control
- T/C (dose: 20.0 mg/kg/injection, schedule: Q01DX009 (ip), vehicle: saline + alcohol): 110 % of control
- T/C (dose: 40.0 mg/kg/injection, schedule: Q01DX009 (ip), vehicle: saline + alcohol): 97 % of control
- T/C (dose: 80.0 mg/kg/injection, schedule: Q01DX009 (ip), vehicle: saline + alcohol): 100 % of control

SMILES: CS(=O)(=O)c1nnnn1-c1ccccc1
- T/C (dose: 12.5 mg/kg/injection, schedule: Q04DX003 (ip), vehicle: saline with Tween-80): 106 % of control
- T/C (dose: 25.0 mg/kg/injection, schedule: Q04DX003 (ip), vehicle: saline with Tween-80): 106 % of control
- T/C [2]: 102 % of control and 112 % of control
- T/C [3]: 105 % of control

SMILES: O=C(O)C1C2C=CC(O2)C1C(=O)Nn1cccc1 (stereo not given)
- T/C (dose: 50.0 mg/kg/injection, schedule: Q01DX009 (ip), vehicle: Klucel (hydroxypropylcellulose) (HPC)): 99 % of control
- T/C (dose: 100.0 mg/kg/injection, schedule: Q01DX009 (ip), vehicle: Klucel (hydroxypropylcellulose) (HPC)): 94 % of control
- T/C (dose: 200.0 mg/kg/injection, schedule: Q01DX009 (ip), vehicle: Klucel (hydroxypropylcellulose) (HPC)): 95 % of control

SMILES: C[CH2][Sn]([CH2]C)([CH2]C(=O)OC)[CH2]C(=O)OC
- T/C (dose: 9.0 mg/kg/injection, schedule: Q03HX015 (ip), vehicle: saline with Tween-80): 153 % of control
- T/C [8]: 170 % of control
- T/C (dose: 18.0 mg/kg/injection, schedule: Q01DX005 (ip), vehicle: saline with Tween-80): 150 % of control
- T/C [9]: 174 % of control

SMILES: CC(=O)Nc1nc(Cl)c2[nH]cnc2n1
- T/C (dose: 25.0 mg/kg/injection, schedule: Q01DX005 (ip), vehicle: Klucel (hydroxypropylcellulose) (HPC)): 98 % of control
- T/C (dose: 50.0 mg/kg/injection, schedule: Q01DX005 (ip), vehicle: Klucel (hydroxypropylcellulose) (HPC)): 98 % of control
- T/C (dose: 100.0 mg/kg/injection, schedule: Q01DX005 (ip), vehicle: Klucel (hydroxypropylcellulose) (HPC)): 102 % of control
- T/C (dose: 200.0 mg/kg/injection, schedule: Q01DX005 (ip), vehicle: Klucel (hydroxypropylcellulose) (HPC)): 112 % of control

SMILES: COc1ccc(Cc2nc(C)cc3cc(OC)c(OC)cc23)cc1OC
- T/C (dose: 50.0 mg/kg/injection, schedule: Q01DX009 (ip), vehicle: water): 111 % of control
- T/C (dose: 100.0 mg/kg/injection, schedule: Q01DX009 (ip), vehicle: water): 102 % of control
- T/C (dose: 200.0 mg/kg/injection, schedule: Q01DX009 (ip), vehicle: water): 89 % of control

SMILES: CC1OC(OC2C(O[C@H]3CC[C@@]4(C)C(=CC[C@H]5[C@@H]6C[C@@H]7O[C@]8(CC[C@H](C)CN8)[C@@H](C)[C@@H]7[C@@]6(C)CC[C@@H]54)C3)OC(CO)C(O)C2OC2OC(CO)C(O)C(O)C2O)C(O)C(O)C1O (stereo not given in full)
- T/C (dose: 6.25 mg/kg/injection, schedule: Q01DX009 (ip), vehicle: saline with Tween-80): 90 % of control
- T/C [8]: 86 % of control
- T/C [1]: 90 % of control

SMILES: CC(C)(C)c1cc(C(C)(C)C)c2oc(C(=O)O)cc(=O)c2c1
- T/C (dose: 50.0 mg/kg/injection, schedule: Q01DX009 (ip), vehicle: saline): 95 % of control
- T/C (dose: 100.0 mg/kg/injection, schedule: Q01DX009 (ip), vehicle: saline): 97 % of control

SMILES: CCCCCCCC(=O)NC1CC(O[C@H]2C[C@](O)(C(=O)CO)Cc3c(O)c4c(c(O)c32)C(=O)c2c(OC)cccc2C4=O)OC(C)C1O (stereo not given in full)
- T/C (dose: 6.25 mg/kg/injection, schedule: Q01DX009 (ip), vehicle: other): 153 % of control
- T/C [4]: 177 % of control
- T/C [5]: 184 % of control
- T/C [6]: 155 % of control
- T/C [7]: 86 % of control

SMILES: CC1(O)CCC2C3CCC4CC(=O)CCC4(C)C3(F)C(O)CC21C (stereo not given)
- T/C [9]: 100 % of control
- T/C [3]: 100 % of control
- T/C (dose: 200.0 mg/kg/injection, schedule: Q01DX009 (ip), vehicle: saline with Tween-80): 100 % of control
- T/C (dose: 200.0 mg/kg/injection, schedule: Q04DX003 (ip), vehicle: saline with Tween-80): 100 % of control
- T/C (dose: 400.0 mg/kg/injection, schedule: Q01DX009 (ip), vehicle: saline with Tween-80): 95 % of control
- T/C (dose: 400.0 mg/kg/injection, schedule: Q04DX003 (ip), vehicle: saline with Tween-80): 100 % of control

SMILES: O=C(O)C1CN(C(=O)OCC2c3ccccc3-c3ccccc32)CS1 (stereo not given)
- T/C (dose: 50.0 mg/kg/injection, schedule: Q01DX005 (ip), vehicle: saline with Tween-80): 94 % of control
- T/C (dose: 100.0 mg/kg/injection, schedule: Q01DX005 (ip), vehicle: saline with Tween-80): 94 % of control
- T/C (dose: 200.0 mg/kg/injection, schedule: Q01DX005 (ip), vehicle: saline with Tween-80): 92 % of control

SMILES: CC(=O)Nc1ccc2c(C)ccnc2c1
- T/C (dose: 50.0 mg/kg/injection, schedule: Q01DX009 (ip), vehicle: distilled water + alcohol): 103 % of control
- T/C (dose: 100.0 mg/kg/injection, schedule: Q01DX009 (ip), vehicle: distilled water + alcohol): 104 % of control
- T/C (dose: 200.0 mg/kg/injection, schedule: Q01DX009 (ip), vehicle: distilled water + alcohol): 105 % of control

SMILES: Cc1cccc2c(-c3ccccc3)c3cccc[n+]3cc12
- T/C (dose: 0.78 mg/kg/injection, schedule: Q01DX005 (ip), vehicle: Klucel (hydroxypropylcellulose) (HPC)): 100 % of control and 103 % of control
- T/C (dose: 1.56 mg/kg/injection, schedule: Q01DX005 (ip), vehicle: Klucel (hydroxypropylcellulose) (HPC)): 108 % of control and 89 % of control
- T/C (dose: 3.12 mg/kg/injection, schedule: Q01DX005 (ip), vehicle: Klucel (hydroxypropylcellulose) (HPC)): 103 % of control and 97 % of control
- T/C (dose: 6.25 mg/kg/injection, schedule: Q01DX005 (ip), vehicle: Klucel (hydroxypropylcellulose) (HPC)): 94 % of control

SMILES: CC([OH2+])CNCCN.CC([OH2+])CNCCN.[Ni+2].[O-][Cl+3]([O-])([O-])[O-] (stereo not given)
- T/C (dose: 12.5 mg/kg/injection, schedule: Q01DX009 (ip), vehicle: saline): 111 % of control
- T/C (dose: 25.0 mg/kg/injection, schedule: Q01DX009 (ip), vehicle: saline): 100 % of control
